Columns and labels:
CDK12/CyclinK = CDK12/CyclinK (Homo sapiens (Human), UniProt Q9NYV4); test: CDK12/cyclinK enzyme activity; assay type: biochemical; details: in vitro
HCC1954 cells = test: Breast cancer growth inhibitory activity (Cell-titer Glo, 72 h); assay type: cell-based; details: Homo sapiens, 72 hours, read-out: HCC1954 (GI50/μM)
Procedure: (§1) Breast cancer cells in a culture solution (100 μL volume/well, 2,500 SK-Br3 cells/well, 1,000 HCC-1954 cells/well) were seeded into a tissue culture-treated 96-well plate and cultured in a cell incubator for 24 hours. […] Cell-titer Glo™ reagent (50 μL of a 5-fold diluted solution, Promega) was added to each well, and luminescence signals were measured using an Envision™ plate reader (PerkinElmer, USA). Titration curve fitting and IC50 values were generated using Prism 7.0 s/w (GraphPad, San Diego, USA).

SK-Br3 cells = test: as above; assay type: cell-based; details: Homo sapiens, SK-BR-3; 72 hours; read-out: SK-Br3 (GI50/μM)
Procedure: as §1

CDK12/CyclinK, sequence (Q9NYV4 whole entry): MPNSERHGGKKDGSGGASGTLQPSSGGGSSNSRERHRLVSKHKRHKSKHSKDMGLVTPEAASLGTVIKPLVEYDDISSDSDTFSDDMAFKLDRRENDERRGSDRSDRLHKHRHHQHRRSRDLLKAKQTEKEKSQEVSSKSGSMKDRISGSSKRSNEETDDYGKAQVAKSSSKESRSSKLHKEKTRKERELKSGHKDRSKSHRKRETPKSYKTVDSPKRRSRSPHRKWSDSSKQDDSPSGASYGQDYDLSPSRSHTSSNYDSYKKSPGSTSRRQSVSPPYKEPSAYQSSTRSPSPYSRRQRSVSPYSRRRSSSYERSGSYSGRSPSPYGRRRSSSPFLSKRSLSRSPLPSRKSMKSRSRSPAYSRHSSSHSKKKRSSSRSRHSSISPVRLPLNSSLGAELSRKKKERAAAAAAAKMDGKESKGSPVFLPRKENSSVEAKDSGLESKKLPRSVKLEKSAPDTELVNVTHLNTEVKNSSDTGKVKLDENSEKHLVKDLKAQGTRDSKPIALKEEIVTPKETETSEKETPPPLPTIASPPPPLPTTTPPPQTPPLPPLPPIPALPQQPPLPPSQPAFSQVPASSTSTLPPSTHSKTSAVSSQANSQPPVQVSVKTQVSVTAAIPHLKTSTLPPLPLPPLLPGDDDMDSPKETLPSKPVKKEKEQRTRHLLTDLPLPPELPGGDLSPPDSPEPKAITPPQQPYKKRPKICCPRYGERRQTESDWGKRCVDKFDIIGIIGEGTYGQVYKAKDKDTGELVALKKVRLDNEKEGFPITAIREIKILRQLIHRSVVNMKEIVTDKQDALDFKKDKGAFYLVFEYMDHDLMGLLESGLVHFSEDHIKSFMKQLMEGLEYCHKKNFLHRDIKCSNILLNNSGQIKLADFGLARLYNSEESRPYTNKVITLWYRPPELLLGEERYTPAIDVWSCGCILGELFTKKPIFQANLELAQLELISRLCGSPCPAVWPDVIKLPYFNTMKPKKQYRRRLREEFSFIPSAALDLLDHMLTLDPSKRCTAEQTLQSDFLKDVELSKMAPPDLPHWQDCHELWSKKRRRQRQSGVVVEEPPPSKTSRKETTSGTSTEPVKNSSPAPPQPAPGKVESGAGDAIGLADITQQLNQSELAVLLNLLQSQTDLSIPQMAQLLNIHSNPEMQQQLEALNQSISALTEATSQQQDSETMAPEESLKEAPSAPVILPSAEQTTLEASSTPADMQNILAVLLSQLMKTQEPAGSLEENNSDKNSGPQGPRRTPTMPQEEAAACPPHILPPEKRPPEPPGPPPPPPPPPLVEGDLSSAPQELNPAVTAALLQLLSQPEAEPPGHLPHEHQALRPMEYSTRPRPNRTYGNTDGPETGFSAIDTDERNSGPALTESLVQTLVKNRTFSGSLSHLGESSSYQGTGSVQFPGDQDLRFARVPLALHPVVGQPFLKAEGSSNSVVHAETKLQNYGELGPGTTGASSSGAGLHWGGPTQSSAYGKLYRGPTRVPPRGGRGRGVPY
CDK12/CyclinK, sequence (O75909 whole entry partner): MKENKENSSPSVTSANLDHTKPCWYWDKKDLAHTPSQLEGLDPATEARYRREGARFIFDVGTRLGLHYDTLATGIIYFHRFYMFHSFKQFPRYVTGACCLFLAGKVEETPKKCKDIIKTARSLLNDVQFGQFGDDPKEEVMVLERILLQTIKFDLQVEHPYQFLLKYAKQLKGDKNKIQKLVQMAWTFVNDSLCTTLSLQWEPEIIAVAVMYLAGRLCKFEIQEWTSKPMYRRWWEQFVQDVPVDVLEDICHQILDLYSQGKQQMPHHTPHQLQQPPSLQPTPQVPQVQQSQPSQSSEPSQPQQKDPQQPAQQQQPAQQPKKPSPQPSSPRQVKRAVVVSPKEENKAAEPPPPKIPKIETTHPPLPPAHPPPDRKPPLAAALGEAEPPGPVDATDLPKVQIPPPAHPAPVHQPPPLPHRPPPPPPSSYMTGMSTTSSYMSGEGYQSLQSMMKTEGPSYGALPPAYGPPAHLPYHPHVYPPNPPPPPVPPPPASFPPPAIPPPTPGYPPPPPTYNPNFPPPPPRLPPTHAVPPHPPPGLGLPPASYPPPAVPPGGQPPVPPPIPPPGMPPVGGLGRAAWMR

SMILES	IC50 (CDK12/CyclinK)	GI50 (HCC1954 cells)	GI50 (SK-Br3 cells)
Cc1ccc(-c2ccc(CNc3nc(-c4cccnc4)nc4c3ncn4C(C)C)nc2)cn1 [Example 3, 9-isopropyl-N-((6′-methyl-[3,3′-bipyridin]-6-yl)methyl)-2-(pyridin-3-yl)-9H-purin-6-amine]	1.11 µM	13.6 µM	23.1 µM
CC(C)n1cnc2c(NCc3ccc(-c4cccnc4)nc3)nc(-c3cccnc3)nc21 [Example 6, N-([2,3′-bipyridin]-5-ylmethyl)-9-isopropyl-2-(pyridin-3-yl)-9H-purin-6-amine]	0.221 µM	0.248 µM	0.416 µM
CC(C)n1cnc2c(NCc3ccc(-c4cccnc4)nc3)nc(-c3ccccc3)nc21 [Example 8, N-([2,3′-bipyridin]-5-ylmethyl)-9-isopropyl-2-phenyl-9H-purin-6-amine]	0.623 µM	1.12 µM	1.68 µM
CC(C)n1cnc2c(NCc3ccc(-c4cccnc4)nc3)nc(-c3cccc(C(N)=O)c3)nc21 [Example 9, 3-(6-(([2,3′-bipyridin]-5-ylmethyl)amino)-9-isopropyl-9H-purin-2-yl)benzamide]	0.504 µM	1.12 µM	1.6 µM
CC(C)n1cnc2c(NCc3ccc(-c4cccnc4)nc3)nc(-c3ccc(C(N)=O)cc3)nc21 [Example 10, 4-(6-(([2,3′-bipyridin]-5-ylmethyl)amino)-9-isopropyl-9H-purin-2-yl)benzamide]	0.484 µM	3.14 µM	3.7 µM
CC(C)n1cnc2c(NCc3ccc(-c4cccnc4)nc3)nc(-c3ccc4cn[nH]c4c3)nc21 [Example 13, N-([2,3′-bipyridin]-5-ylmethyl)-2-(1H-indazol-6-yl)-9-isopropyl-9H-purin-6-amine]	0.179 µM	0.4 µM	0.597 µM
CC(C)n1cnc2c(NCc3ccc(-c4cccnc4)nc3)nc(-c3cnc4ccccc4c3)nc21 [Example 16, N-([2,3′-bipyridin]-5-ylmethyl)-9-isopropyl-2-(quinolin-3-yl)-9H-purin-6-amine]	0.486 µM	4.23 µM	3.71 µM
CC(C)n1cnc2c(NCc3ccc(-c4cccnc4)nc3)nc(-c3ccn[nH]3)nc21 [Example 22, N-([2,3′-bipyridin]-5-ylmethyl)-9-isopropyl-2-(1H-pyrazol-5-yl)-9H-purin-6-amine]	0.501 µM		1.72 µM
CC(C)n1cnc2c(NCc3ccc(-c4cccnc4)nc3)nc(-c3cn[nH]c3)nc21 [Example 23, N-([2,3′-bipyridin]-5-ylmethyl)-9-isopropyl-2-(1H-pyrazol-4-yl)-9H-purin-6-amine]	1.43 µM		1.99 µM
CC(C)n1cnc2c(NCc3ccc(-c4cccnc4)nc3)nc(-c3ccccc3N)nc21 [Example 25, N-([2,3′-bipyridin]-5-ylmethyl)-2-(2-aminophenyl)-9-isopropyl-9H-purin-6-amine]	0.619 µM	2.62 µM	2.58 µM
CC(C)n1cnc2c(NCc3ccc(-c4cccnc4)nc3)nc(-c3cccc(N)c3)nc21 [Example 26, N-([2,3′-bipyridin]-5-ylmethyl)-2-(3-aminophenyl)-9-isopropyl-9H-purin-6-amine]	0.17 µM	0.34 µM	0.615 µM
CC(C)n1cnc2c(NCc3ccc(-c4cccnc4)nc3)nc(-c3cccc(NCCCO)c3)nc21 [Example 33, 3-((3-(6-(([2,3′-bipyridin]-5-ylmethyl)amino)-9-isopropyl-9H-purin-2-yl)phenyl)amino)propan-1-ol]	0.257 µM		0.724 µM
CC(C)n1cnc2c(NCc3ccc(-c4cccnc4)nc3)nc(-c3ccc(NCCCO)nc3)nc21 [Example 36, 3-((5-(6-(([2,3′-bipyridin]-5-ylmethyl)amino)-9-isopropyl-9H-purin-2-yl)pyridin-2-yl)amino)propan-1-ol]	0.304 µM		1.18 µM
COc1cncc(-c2nc(NCc3ccc(-c4ccccn4)cn3)c3ncn(C(C)C)c3n2)c1 [Example 44, N-([2,3′-bipyridin]-6′-ylmethyl)-9-isopropyl-2-(5-methoxypyridin-3-yl)-9H-purin-6-amine]	1.53 µM		
CC(C)n1cnc2c(NCc3ccc(-c4ccccn4)cn3)nc(-c3ccc(N)nc3)nc21 [Example 45, N-([2,3′-bipyridin]-6′-ylmethyl)-2-(6-aminopyridin-3-yl)-9-isopropyl-9H-purin-6-amine]	0.221 µM		0.169 µM
c1cncc(-c2ccc(CNc3nc(-c4cccnc4)nc4c3ncn4C3CCOCC3)cn2)c1 [Example 48, N-([2,3′-bipyridin]-5-ylmethyl)-2-(pyridin-3-yl)-9-(tetrahydro-2H-pyran-4-yl)-9H-purin-6-amine]	> 10 µM	44.2 µM	
CCn1cnc2c(NCc3ccc(-c4ccnc(C)c4)nc3)nc(-c3ccc4[nH]c(=O)[nH]c4c3)nc21 [Example 52, 5-(9-ethyl-6-(((2′-methyl-[2,4′-bipyridin]-5-yl)methyl)amino)-9H-purin-2-yl)-1,3-dihydro-2H-benzo[d]imidazol-2-one]		0.635 µM	
CCn1cnc2c(NCc3ccc(-n4nc(C)cc4C)nc3)nc(-c3cnc(N)nc3)nc21 [Example 62, 2-(2-aminopyrimidin-5-yl)-N-((6-(3,5-dimethyl-1H-pyrazol-1-yl)pyridin-3-yl)methyl)-9-ethyl-9H-purin-6-amine]		0.085 µM	0.066 µM
CC(C)n1cnc2c(NCc3ccc(-c4cccnc4)nc3)nc(N3CCOC[C@H]3CCO)nc21 [Example 63, (R)-2-(4-(6-(([2,3′-bipyridin]-5-ylmethyl)amino)-9-isopropyl-9H-purin-2-yl)morpholin-3-yl)ethan-1-ol]		0.168 µM	

Further molecules by falling IC50 (CDK12/CyclinK), results first:

IC50 (CDK12/CyclinK)	GI50 (HCC1954 cells)	GI50 (SK-Br3 cells)	SMILES
0.164 µM		1.72 µM	CC(C)n1cnc2c(NCc3ccc(-c4cccnc4)nc3)nc(-c3ccnc(F)c3)nc21 [Example 29, N-([2,3′-bipyridin]-5-ylmethyl)-2-(2-fluoropyridin-4-yl)-9-isopropyl-9H-purin-6-amine]
0.155 µM	1.36 µM	1.5 µM	CC(C)n1cnc2c(NCc3ccc(-c4cccnc4)nc3)nc(-c3ccc4[nH]ccc4c3)nc21 [Example 11, N-([2,3′-bipyridin]-5-ylmethyl)-2-(1H-indol-5-yl)-9-isopropyl-9H-purin-6-amine]
0.153 µM	0.5 µM	0.801 µM	CC(C)n1cnc2c(NCc3ccc(-c4ccncc4)nc3)nc(-c3cccnc3)nc21 [Example 7, N-([2,4′-bipyridin]-5-ylmethyl)-9-isopropyl-2-(pyridin-3-yl)-9H-purin-6-amine]
0.15 µM		0.813 µM	CC(C)n1cnc2c(NCc3ccc(-c4cccnc4)nc3)nc(-c3ccc(N)cc3)nc21 [Example 27, N-([2,3′-bipyridin]-5-ylmethyl)-2-(4-aminophenyl)-9-isopropyl-9H-purin-6-amine]
0.147 µM	1.31 µM	1.75 µM	CC(C)n1cnc2c(NCc3ccc(-c4cccnc4)nc3)nc(-c3ccc(F)nc3)nc21 [Example 28, N-([2,3′-bipyridin]-5-ylmethyl)-2-(6-fluoropyridin-3-yl)-9-isopropyl-9H-purin-6-amine]
0.113 µM		0.479 µM	CC(C)n1cnc2c(NCc3ccc(-c4cccnc4)nc3)nc(-c3ccnc(NCCCO)c3)nc21 [Example 38, 3-((4-(6-(([2,3′-bipyridin]-5-ylmethyl)amino)-9-isopropyl-9H-purin-2-yl)pyridin-2-yl)amino)propan-1-ol]
0.104 µM	1.88 µM	2.6 µM	CC(C)n1cnc2c(NCc3ccc(-c4cccnc4)nc3)nc(-c3ccc4[nH]ncc4c3)nc21 [Example 14, N-([2,3′-bipyridin]-5-ylmethyl)-2-(1H-indazol-5-yl)-9-isopropyl-9H-purin-6-amine]
0.094 µM	0.362 µM		CC(C)n1cnc2c(NCc3ccc(-c4cccnc4)nc3)nc(-c3ccnc(N)c3)nc21 [Example 19, N-([2,3′-bipyridin]-5-ylmethyl)-2-(2-aminopyridin-4-yl)-9-isopropyl-9H-purin-6-amine]
0.09 µM	0.937 µM	1.25 µM	Cc1ccc(-c2nc(NCc3ccc(-c4cccnc4)nc3)c3ncn(C(C)C)c3n2)cn1 [Example 17, N-([2,3′-bipyridin]-5-ylmethyl)-9-isopropyl-2-(6-methylpyridin-3-yl)-9H-purin-6-amine]
0.087 µM			CC(C)n1cnc2c(NCc3ccc(-c4cccnc4)nc3)nc(-c3cnc(N)nc3)nc21 [Example 21, N-([2,3′-bipyridin]-5-ylmethyl)-2-(2-aminopyrimidin-5-yl)-9-isopropyl-9H-purin-6-amine]
0.086 µM		0.47 µM	CC(C)n1cnc2c(NCc3ccc(-c4cccnc4)nc3)nc(-c3ccnc(NCCO)c3)nc21 [Example 37, 2-((4-(6-(([2,3′-bipyridin]-5-ylmethyl)amino)-9-isopropyl-9H-purin-2-yl)pyridin-2-yl)amino)ethan-1-ol]
0.065 µM	0.279 µM	0.375 µM	CC(C)n1cnc2c(NCc3ccc(-c4cccnc4)nc3)nc(-c3ccc(N)nc3)nc21 [Example 18, N-([2,3′-bipyridin]-5-ylmethyl)-2-(6-aminopyridin-3-yl)-9-isopropyl-9H-purin-6-amine]
0.051 µM	0.308 µM	0.314 µM	CC(C)n1cnc2c(NCc3ccc(-c4cccnc4)nc3)nc(-c3cncnc3)nc21 [Example 20, N-([2,3′-bipyridin]-5-ylmethyl)-9-isopropyl-2-(pyrimidin-5-yl)-9H-purin-6-amine]
0.016 µM		0.217 µM	CCn1cnc2c(NCc3ccc(-c4cccnc4)nc3)nc(-c3cccnc3)nc21 [Example 46, N-([2,3′-bipyridin]-5-ylmethyl)-9-ethyl-2-(pyridin-3-yl)-9H-purin-6-amine]
